# Assay results taken from patent US20240246968A1, “SMALL MOLECULE INHIBITORS OF KRAS G12C MUTANT” (Merck Sharp & Dohme LLC, priority 2021, published 2024).
# Tests used:
# [1] = target: Gppcp-bound recombinant K-Ras4B G12C mutant protein (amino acids 1-169, C51S/C80L/C118S) (Homo sapiens, UniProt P01116, C118S/C51S/C80L/G12C); assay: KRASG12C binding assay (LC-MS, compound binding rate); settings: test compound final concentration 0.5 μM, 25° C., 1 hour
# Procedure: As test compounds for the KRASG12C binding assay, the compounds obtained in the “Preparation of Compounds” section were used. Sample solutions each containing a test compound were prepared in the form of a 10 mM DMSO solution.
# Gppcp-bound recombinant K-Ras4B G12C mutant protein (amino acids 1-169, C51S/C80L/C118S, SEQ ID NO:1) was diluted with a buffer (1×TBS, 0.1 mM TCEP, 0.25 mM MgCl2, 50 μM Gppcp) to prepare a 50 nM protein solution. K-Ras4B is the major splicing variant of K-Ras. Amino acid sequence of residues 1 to 150 including the compounds' binding region of K-Ras4B is exactly same as that of K-Ras4A, the other splicing variant (Oncotarget. 2016 Jul. 19; 7(29): 46717-46733). A sample solution containing 10 mM test compound was diluted ten-fold with DMSO to make a 1 mM sample solution, and then diluted twenty-fold with DMSO to make a 50 μM sample solution. 1 μL of a 50 μM sample solution was added to 100 μL of a 50 nM protein solution to adjust the final concentration of a test compound to be 0.5 μM in the mixture. The mixtures were stored in an incubator at 25° C. for 1 hour, and 10 μL of a 1×TBS solution containing 2% formic acid was added to stop the reaction, followed by LC-MS measurement. LC-MS measurement was performed using Xevo G2-S Q-Tof manufactured by Waters, and reverse-phase chromatography was performed with a desalting column. A mass spectrum of positive ions was obtained by electrospray. For a mass spectrum, a spectrum of polyvalent ions was collectively converted to a molecular weight by using OpenLynx software by the MaxEnt technique, and a compound binding rate was calculated from the ratio of the signal intensity of a peak that corresponds to the molecular weight of the protein to the signal intensity of a peak that corresponds to the molecular weight of the protein conjugated with the compound.
# The binding assay of the test compounds was conducted at a final concentration of 0.5 μM. A binding rate of 80% or more is rated “A”, a binding rate of 60% or more and less than 80% is rated “B”, a binding rate of 40% or more and less than 60% is rated “C”, a binding rate of 20% or more and less than 40% is rated “D”, and a binding rate of less than 20% is rated “E”. N.D.=not determined. Binding rate % is the ratio of KRAS signal intensity at the molecular weight of one molecule adduct to the sum of all the KRAS signal intensity (unbound form and adducts) in mass spectrum. Thus, binding rate 100% means that only the one molecule adduct was observed without any unbound KRAS. The following tables show the results.
# [2] = target: T1, interaction between recombinant K-Ras4B G12C mutant protein and cRAF RAS-binding domain (cRAF-RBD) (Homo sapiens, UniProt P01116, G12C); assay: Inhibitory activity on interaction between KRAS G12C and cRAF (Alpha technology); assay type: biochemical; settings: GMPPNP-bound KRAS G12C incubated with compound at 25° C. for 1 hour, then cRAF-RBD; Alpha signal
# T1 construct: made in house; host or cells: E. coli
# Procedure: Interaction between recombinant K-Ras4B G12C mutant protein (amino acids 1-169, SEQ ID NO:2) and cRAF RAS-binding domain (cRAF-RBD, amino acids 50-132, Jena Biosciences GmbH) was measured using Alpha technology (PerkinElmer Inc.).
# Recombinant KRAS G12C protein with an N-terminal His-tag was expressed in E. coli and purified by affinity chromatography. To prepare GTP-bound form and GDP-bound form of KRAS G12C protein. 50 μM KRAS G12C protein was incubated with 1 mM GMPPNP (Guanosine-5′-[(β,γ)-imido]triphosphate. Tetralithium salt)(Jena Bioscience GmbH) and 1 mM GDP, respectively, in a loading buffer (20 mM Tris-HCl (pH 7.5), 50 mM NaCl, 1 mM DTT and 2.5 mM EDTA) for 1 hour on ice. After the incubation, MgCl2 was added to a final concentration of 10 mM, followed by incubation at room temperature for 30 minutes. The mixture was allowed to pass through a NAP-5 column to remove free nucleotides and purified, and the resultant nucleotide-bound KRAS G12C protein was used for compound evaluation.
# For the measurement of the inhibitory activity of compounds on interaction between KRAS G12C and cRAF-RBD, GMPPNP-bound KRAS G12C protein was incubated with various concentrations of compound in a reaction buffer (20 mM Tris-HCl (pH 7.5), 100 mM NaCl, 1 mM MgCl2, 1 mM TCEP. 0.1% Tween 20) at 25° C. for 1 hour. After the incubation, recombinant cRAF-RBD and Alpha detection reagents were added and incubated at room temperature for 1.5 hours for binding. Interaction of KRAS G12C and cRAF-RBD was monitored by measuring Alpha signal. Inhibition % was calculated using the signal from the reaction without test compound (DMSO control) as 0% inhibition and the signal from the reaction using GDP-bound KRAS G12C in place of GMPPNP-bound KRAS G12C as 100% inhibition. IC50 values were calculated from dose titration curve using curve fitting by XLfit software (IDBS). The following tables show the results.
# MIA PaCa-2 cells = assay: Growth inhibition activity on KRAS-G12C mutant cell line (MIA PaCa-2), CellTiter-Glo 3D; assay type: cell-based, human; settings: MIA PaCa-2, 3-day culture with compound
# Procedure: MIA PaCa-2 cells (given by Sumitomo Dainippon Pharma Co., Ltd.), which are a KRAS-G12C mutant human pancreas cancer cell line, were suspended in a 10% fetal bovine serum-containing RPMI1640 medium (manufactured by Fujifilm Wako Pure Chemical Corporation.). The cell suspension was seeded into each well of a 384-well U bottom microplate and cultured in an incubator containing 5% CO2 gas at 37° C. for 1 day. The compounds obtained in the “Preparation of Compounds” section were used as test compounds and were dissolved in DMSO, respectively, and each test compound was diluted with DMSO to give a concentration 500 times the final concentration. The resultant solution of the test compound in DMSO was diluted with the medium used for suspending cells and added to each well of the cell-culture plate to give a DMSO final concentration of 0.2%, followed by culture in an incubator containing 5% CO2 gas at 37° C. for another 3 days. The cell count after 3-day culture in the presence of the test compound was measured using CellTiter-Glo 3D Reagent (manufactured by Promega Corporation). All wells were added with CellTiter-Glo 3D Reagent and mixed for 10 minutes. 30 minutes after mixing, luminescence was measured by a plate reader. The growth inhibition rate was calculated from the following equation, and the concentration of the test compound at which 50/o inhibition was achieved (IC50 (nM)) was determined. The following tables show the results.
# [formula] • T: the emission intensity in a well into which a test compound was added. • C: the emission intensity in a well into which a test compound was not added.
Structure (SMILES),IC50 [2] [µM],"IC50 (MIA PaCa-2 cells; Homo sapiens, MIA PaCa-2, 72 h) [µM]",IC50 (MIA PaCa-2 cells) [µM],binding rate [1]
"COc1cc2c(cc1-c1cccn3c(C(=O)c4cc(F)c(NC(=O)/C=C/CN[C@H]5CC[C@H](OC)CC5)c(F)c4)ccc13)nc(C)n2C [Example 4, (E)-N-(2,6-difluoro-4-(8-(6-methoxy-1,2-dimethyl-1H-benzo[d]imidazol-5-yl)indolizine-3-carbonyl)phenyl)-4-(((1r,4r)-4-methoxycyclohexyl)amino)but-2-enamide]",0.074,0.042,–,A (A binding rate of 80% or more is rated “A”)
"CO[C@H]1CC[C@H](NC/C=C/C(=O)Nc2c(F)cc(C(=O)c3ccc4c(-c5c(Cl)cc6c(ncn6C)c5Cl)cccn34)cc2F)CC1 (single isomer, unassigned) [Example 15-1, (E)-N-(4-(8-(4,6-dichloro-1-methyl-1H-benzo[d]imidazol-5-yl)indolizine-3-carbonyl)-2,6-difluorophenyl)-4-(((1r,4r)-4-methoxycyclohexyl)amino)but-2-enamide]",0.042,–,0.046,A (A binding rate of 80% or more is rated “A”)
"CO[C@H]1CC[C@H](NC/C=C/C(=O)Nc2c(F)cc(C(=O)c3ccc4c(-c5c(Cl)cc6c(ncn6C)c5Cl)cccn34)cc2F)CC1 (single isomer, unassigned) [Example 15-2, (E)-N-(4-(8-(4,6-dichloro-1-methyl-1H-benzo[d]imidazol-5-yl)indolizine-3-carbonyl)-2,6-difluorophenyl)-4-(((1r,4r)-4-methoxycyclohexyl)amino)but-2-enamide]",0.19,–,0.22,A (A binding rate of 80% or more is rated “A”)

# Further lines, with some results ahead:
IC50 [2] [µM],"IC50 (MIA PaCa-2 cells; Homo sapiens, MIA PaCa-2, 72 h) [µM]",IC50 (MIA PaCa-2 cells) [µM],Structure (SMILES),binding rate [1]
0.062,0.064,–,"CO[C@H]1CC[C@H](NC/C=C/C(=O)Nc2c(F)cc(C(=O)c3ccc4c(-c5c(Br)cc6c(nc(C)n6C)c5Cl)cccn34)cc2F)CC1 [Example 31, (E)-N-(4-(8(6-bromo-4-chloro-1,2-dimethyl-1H-benzo[d]imidazol-5-yl)indolizine-3-carbonyl)-2,6-difluorophenyl)-4-(((1r,4r)-4-methoxycyclohexyl)amino)but-2-enamide]",A (A binding rate of 80% or more is rated “A”)
0.087,0.24,–,"CO[C@H]1CC[C@H](NC/C=C/C(=O)Nc2c(F)cc(C(=O)c3ccc4c(-c5c(C#N)cc6c(nc(C)n6C)c5Cl)cccn34)cc2F)CC1 [Example 37, (E)-N-(4-(8-(4-chloro-6-cyano-1,2-dimethyl-1H-benzo[d]imidazol-5-yl)indolizine-3-carbonyl)-2,6-difluorophenyl)-4-(((1r,4r)-4-methoxycyclohexyl)amino)but-2-enamide]",A (A binding rate of 80% or more is rated “A”)
0.58,–,0.35,"COc1c(-c2cccn3c(C(=O)c4cc(F)c(NC(=O)/C=C/CN[C@H]5CC[C@H](OC)CC5)c(F)c4)ccc23)c(C)cc2c1nc(C)n2C (single isomer, unassigned) [Example 39-1, (E)-N-(2,6-difluoro-4-(8-(4-methoxy-1,2,6-trimethyl-1H-benzo[d]imidazol-5-yl)indolizine-3-carbonyl)phenyl)-4-(((1r,4r)-4-methoxycyclohexyl)amino)but-2-enamide]",A (A binding rate of 80% or more is rated “A”)
0.0202,–,0.0426,"COc1c(-c2cc(F)cn3c(C(=O)c4cc(F)c(NC(=O)/C=C/CNC5(C)CC5)c(F)c4)cnc23)c(C(F)(F)F)cc2c1nc(C)n2C (single isomer, unassigned) [Example 112-1, (E)-N-(2,6-difluoro-4-(6-fluoro-8-(4-methoxy-1,2-dimethyl-6-(trifluoromethyl)-1H-benzo[d]imidazol-5-yl)imidazo[1,2-a]pyridine-3-carbonyl)phenyl)-4-((1-methylcyclopropyl)amino)but-2-enamide]",–
